Results: US9181218B2, “Compounds for improved stem cell differentiation into hepatocytes” (Hoffmann-La Roche Inc., priority 2013, dated 2015)

How the values were obtained:
[1] = Microarray analysis of iCell Hepatocytes treated with the compound of example 1; format: cell-based, Human; conditions: 2 HOUR
Description: iCell Hepatocytes treated with the compound of example 1 results in the up and down-regulation of a host of genes; including a kinetic effect on interferon-stimulated gene (ISGs) expression. See FIGS. 15-I and 15-II, 16-I and 16-II and 18 and Table 1.

HBV = test: Infection of iCell Hepatocytes with HBV; format: cell-based, hepatitis B virus (HBV)
Experimental: Two hundred microliters of HBV-containing serum was applied onto a 10-50% Optiprep gradient in SW41 tubes. Samples were centrifuged at 100,000×g for 2 hr at 4 C. Five hundred microliters fractions were collected from the top; each fraction was analyzed for HBsAg (ELISA) and HBV DNA (TaqMan PCR). Fractions containing virus were stored at −80 C.
Fresh iCell® Hepatocytes (day 20-23) were plated and cultured according to iCell Hepatocytes Dissociation and Plating User's Guide at 60 k cells per well in 96 well BIO Collagen IV coated plates (BD Cat#354429) 4 Hours post plating Medium C was removed and replaced with a 1:50 Matrigel (Cat#354227) overlay in Medium D. Twenty four hours post plating, cells were treated with 1 uM of the compound of example 1 in Medium D containing 1% DMSO. Media containing fresh compound was replenished 2 days later. At day 4 post plating, cells were infected with HBV at MOI (multiplicity of infection) of 10. Briefly, purified virus was diluted in medium D containing the compound of example 1 and incubated with cells for 4-6 hr or overnight. After removal of virus inoculum, fresh media containing 1 uM of the compound of example 1 was added and cells were incubated for 14 days with a medium change every 2 days. Culture media were analyzed for secreted viral antigens (HBsAg, HBeAg) and HBV DNA.

O=C(NCc1cccc(F)c1)c1cccc2nc(-c3c(NC[C@@H](O)c4ccccc4)cc[nH]c3=O)[nH]c12 [Example 1, 2-[4-((S)-2-hydroxy-2-phenyl-ethylamino)-2-oxo-1,2-dihydro-pyridin-3-yl]-3H-benzoimidazole-4-carboxylic acid 3-fluoro-benzylamide]
ABCA9 Raw Est Fold Change [1]: −4.37
PCP4 Raw Est Fold Change [1]: −2.44
infection of the four major HBV genotypes (HBV; iCell hepatocytes treated with compound): support robust infection of all four major HBV genotypes
infection with patient-derived vs cell culture-derived (HepG2.2.15) HBV (HBV; iCell hepatocytes treated with compound, FIG. 8): support infection of patient-derived, but not cell culture-derived, HBV
cell susceptibility to HBV infection (HBV; iCell hepatocytes, FIG. 3): cell susceptibility to HBV infection that occurred in a dose-dependent manner
need for compound presence to maintain robust viral infection (HBV; pre-treated 6 d vs pre-treated and during infection (throughout)): Continuous presence of the compound of example 1 is required
